Measured values: paper PMC7000730, “CAPA neuropeptides and their receptor form an anti-diuretic hormone signaling system in the human disease vector, Aedes aegypti” (Scientific Reports, 2020)
Entries after “also recorded” stand apart in the source; their conditions may differ. Structures can show the parent of a compound that is named as a salt. Where two headings read alike, the source gives them in different places. Non-standard residues stand in square brackets, D forms with d. Residues, ends and D or L forms follow the SMILES beside them. No end group written: not given here. pGlu = O=C1CC[C@@H](C(=O)O)N1

Key:
[1] = target: T1, A. aegypti CAPA receptor (CAPAr, anti-diuretic hormone receptor) (Aedes aegypti, UniProt A0A7D5D2Z2); assay: Heterologous receptor functional activation bioluminescence assay (CHO-K1 aequorin); format: cell-based; details: for CAPAr activation (in words): calcium-based luminescence
T1 sequence (A0A7D5D2Z2 1-712): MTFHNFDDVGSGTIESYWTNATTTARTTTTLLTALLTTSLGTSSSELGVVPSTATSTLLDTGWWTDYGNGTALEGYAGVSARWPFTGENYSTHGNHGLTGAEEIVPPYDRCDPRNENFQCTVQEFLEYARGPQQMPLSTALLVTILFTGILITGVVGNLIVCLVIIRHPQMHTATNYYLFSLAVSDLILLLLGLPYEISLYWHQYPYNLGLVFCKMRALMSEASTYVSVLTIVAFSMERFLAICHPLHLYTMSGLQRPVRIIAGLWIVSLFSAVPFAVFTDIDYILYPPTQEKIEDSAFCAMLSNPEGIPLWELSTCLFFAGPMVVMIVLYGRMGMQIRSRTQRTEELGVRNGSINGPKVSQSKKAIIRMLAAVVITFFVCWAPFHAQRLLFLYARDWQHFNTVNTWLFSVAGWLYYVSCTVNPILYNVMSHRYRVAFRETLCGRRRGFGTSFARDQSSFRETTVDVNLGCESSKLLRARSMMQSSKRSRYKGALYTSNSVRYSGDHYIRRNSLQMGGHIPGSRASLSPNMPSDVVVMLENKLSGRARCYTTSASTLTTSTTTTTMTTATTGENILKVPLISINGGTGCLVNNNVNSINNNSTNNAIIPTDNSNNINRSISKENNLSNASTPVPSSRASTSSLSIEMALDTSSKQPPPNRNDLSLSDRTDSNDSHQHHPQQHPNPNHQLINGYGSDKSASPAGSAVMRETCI
Description: (B) Raw luminescent response following application of each CAPA gene-derived neuropeptide and representative neuropeptides belonging to several insect families, each tested at 10 μM. For peptide sequence information and species origin, see Table S3. […] Data represent the mean ± standard error (n = 3).
The open reading frame of the cloned A. aegypti CAPAr was inserted into pcDNA3.1+ mammalian expression vector following procedures described previously[60],[92],[93]. Using a recombinant CHO-K1 cell line stably expressing aequorin[59], A. aegypti CAPAr was transiently expressed following growth and transfection conditions as reported recently. Cells were harvested for the functional assay at 48 hours post-transfection by detaching cells from the culture flask using 5 mM EDTA in Dulbecco’s PBS (DPBS; Wisent Corp., St. Bruno, QC) and later cells were resuspended at a concentration of 10^6–10^7 cells/mL in assay media and incubated with coelenterazine h as described previously. Prior to running the functional assay, cells were diluted 10-fold in assay media and left to incubate for one additional hour. Several endogenous as well as other insect neuropeptides representing a variety of neuropeptide families (see Table S2) were tested by preparing serial dilutions of each peptide in assay media. All peptides were commercially synthesized at a purity of >90% (Genscript, Piscataway, NJ) and 1 mM stock solutions were prepared by dissolving 1 mg of each peptide in water or DMSO as appropriate based on specific peptide characteristics. Recombinant CHO-K1 cells expressing the A. aegypti CAPAr were loaded into each well of multi-well plate using an automated injector module linked to a Synergy 2 Multi Mode Microplate Reader (BioTek, Winooski, VT) which measured kinetic luminescent response from each well for 20 sec immediately following cell loading onto the different peptides at various doses. Data was compiled in Microsoft Excel and analyzed in GraphPad Prism 8.0 (GraphPad Software, San Diego, CA).
Table S2. List and primary structure of several insect neuropeptides tested for functional activation of the mosquito anti-diuretic hormone (CAPA) receptor using heterologous bioassay.

[2] = system: isolated MTs of adult female A. aegypti (diuretic hormone-stimulated fluid secretion); assay: Malpighian tubule fluid secretion assay (modified Ramsay assay); parameters: species or system Aedes aegypti; details: for effect of inhibitor on inhibition by AedaeCAPA-1 and cGMP, 5HT-stimulated MTs: 5HT 100 nmol l^-1, AedaeCAPA-1 1 fmol l^-1 or cGMP (8 bromo-cGMP) 100 nmol l^-1, L-NAME 2 µmol l^-1 or KT5823 5 µmol l^-1, 60 min
Description: To further understand the anti-diuretic signaling pathway involving the CAPA neuroendocrine system, pharmacological blockers, including inhibitors of NOS (L-NAME) and PKG (KT5823), were tested against diuretic hormone-stimulated MTs alone and together with either AedaeCAPA-1 or cGMP.
Figure 5 Effect of a nitric oxide synthase (NOS) inhibitor (L-NAME) on the anti-diuretic activity of AedaeCAPA-1 and cGMP in DromeDH31-stimulated A. aegypti MTs. The NOS inhibitor, L-NAME, was applied against (A) DromeDH31- and (B) 5HT-stimulated MTs alone or in the presence of either AedaeCAPA-1 or cGMP. Secretion rates are presented as mean ± SEM, n = 17–22.
Figure 6 Effect of a protein kinase G (PKG) inhibitor (KT5823) on the anti-diuretic activity of AedaeCAPA-1 and cGMP in DromeDH31-stimulated A. aegypti MTs. The PKG inhibitor, KT5823, was applied against (A) DromeDH31- and (B) 5HT-stimulated MTs alone or in the presence of either AedaeCAPA-1 or cGMP. Secretion rates are presented as mean ± SEM, n = 16–25.
In order to determine fluid secretion rates, a modified Ramsay secretion assay[85] was performed on isolated MTs of 3–6 day old adult female A. aegypti, as reported recently. Tissue dissections were performed under physiological saline prepared as described previously[86] diluted 1:1 with Schneider’s Insect Medium (Sigma-Aldrich, Oakville, ON). Individual MTs were removed and transferred to a Sylgard-lined Petri dish containing 20 μl saline bathing droplets immersed in hydrated mineral oil to prevent evaporation. The proximal end of the MT was removed from the bathing saline and wrapped around a Minuten pin to allow for secretion measurements. Dosages of 25 nmol l^−1 DromeDH31[22] or 100 nmol l^−1 5HT[97],[98] alone or in combination with 1 fmol l^−1 AedaeCAPA-1[37] were applied to the isolated MTs as previously described. […] To investigate the effects of the pharmacological blockers, a nitric oxide synthase (NOS) inhibitor, Nω-Nitro-L-arginine methyl ester hydrochloride (L-NAME), and protein kinase G (PKG) inhibitor, KT5823, were used against 5-HT- and DH31-stimulated MTs. Dosages of 2 µmol l^−1 L-NAME (manufacturer’s recommended dose) and 5 µmol l^−1 KT5823[36] were applied to the MTs. The inhibitors were treated in conjunction with 1 fmol l^−1 AedaeCAPA-1 and/or 100 nmol l^−1 cyclic guanosine monophosphate, 8 bromo-cGMP (cGMP)[37] (Sigma-Aldrich, Oakville, ON, Canada). Unstimulated controls consisted of tubules bathed in physiological saline with no diuretic application. Following a 60-minute incubation period, the size of the secreted droplet was measured using an eyepiece micrometer and fluid secretion rate (FSR) was calculated as described previously. […]

[3] = system: isolated MTs of adult female A. aegypti (diuretic hormone-stimulated fluid secretion); details: ref [37]; cited from earlier work
Excerpt: The influx of Ca^2+ through these channels activates NOS, causing the production of NO, which subsequently activates guanylate cyclase to increase levels of cGMP in the MTs[44]. Ultimately, the activation of the NO/cGMP pathway stimulates the apical V-type H^+-A ...

[4] = CHO-K1 cells stably expressing aequorin, A. aegypti CAPAr transiently expressed (48 h post-transfection), coelenterazine h, kinetic luminescence for 20 sec, dose-response, n = 3, read-out: EC50 on CAPAr
[5] = n = 17–22 (L-NAME), 16–25 (KT5823)
[6] = CHO-K1-aequorin cells expressing CAPAr, luminescence, tested up to 10 μM, read-out: EC50 on CAPAr (NA = no detectable activity)

Compound: CC(C)C[C@H](NC(=O)CNC(=O)[C@@H]1CCC(=O)N1)C(=O)N[C@H](C(=O)N1CCC[C@H]1C(=O)N[C@@H](Cc1ccccc1)C(=O)N1CCC[C@H]1C(=O)N[C@@H](CCCNC(=N)N)C(=O)N[C@H](C(N)=O)C(C)C)C(C)C [CAPA2] ([pGlu]GLVPFPRV-NH2)
- CAPAr activation (in words) ([1]; CHO-K1-aequorin cells expressing CAPAr): potently activate this receptor
- EC50 [1, 4]: 0.00562 µM
- raw luminescent response at 10 μM (in words) ([1]; each peptide at 10 μM, vs BSA vehicle control, one-way ANOVA, Tukey, p < 0.01, n = 3): no difference in response was observed between the two endogenous CAPA neuropeptides

Compound: COC(=O)[C@@]1(OC)C[C@H]2O[C@]1(C)n1c3ccccc3c3c4c(c5c6ccccc6n2c5c31)C(=O)N(C)C4 [KT5823]
- effect of inhibitor on inhibition by AedaeCAPA-1 and cGMP, 5HT-stimulated MTs [2, 5]: the inhibitory activity of AedaeCAPA-1 and cGMP on 5HT-stimulated tubules was abolished
- effect of inhibitor on inhibition of both DH31- and 5HT-stimulated diuresis ([2]; AedaeCAPA-1 1 fmol l^-1 or cGMP 100 nmol l^-1, KT5823 5 µmol l^-1, 60 min): the inhibition of both DH31- and 5HT stimulated diuresis by AedaeCAPA-1 and cGMP were sensitive to the PKG inhibitor, KT5823
- effect of inhibitor on inhibition by both AedaeCAPA-1 and cGMP, DH31-stimulated MTs ([2]; DromeDH31 25 nmol l^-1, AedaeCAPA-1 1 fmol l^-1 or cGMP (8 bromo-cGMP) 100 nmol l^-1, KT5823 5 µmol l^-1, 60 min, n = 16–25): abolished the inhibitory effect of both cGMP and AedaeCAPA-1; also recorded: abolished the anti-diuretic activity of both AedaeCAPA-1 and cGMP, resulting in normal DH31-induced diuresis

Compound: COC(=O)[C@@H](N)CCCNC(N)=N[N+](=O)[O-] [L-NAME, Nω-Nitro-L-arginine methyl ester hydrochloride]
- effect of inhibitor on inhibition by AedaeCAPA-1 and cGMP, 5HT-stimulated MTs [2, 5]: neither AedaeCAPA-1 nor cGMP inhibition are influenced by L-NAME; also recorded: L-NAME had no influence on the anti-diuretic activity of AedaeCAPA-1 in 5HT-stimulated MTs
- effect of inhibitor on inhibition by AedaeCAPA-1, DH31-stimulated MTs ([2]; DromeDH31 25 nmol l^-1, AedaeCAPA-1 1 fmol l^-1, L-NAME 2 µmol l^-1 or KT5823 5 µmol l^-1, 60 min, n = 17–22 (L-NAME), 16–25 (KT5823)): the inhibitory effect of AedaeCAPA-1 was abolished; also recorded: AedaeCAPA-1 mediated inhibition of DH31-stimulated MTs was mitigated in the presence of L-NAME, reducing the anti-diuretic effects observed with AedaeCAPA-1
- effect of inhibitor on inhibition by cGMP, DH31-stimulated MTs ([2]; DromeDH31 25 nmol l^-1, cGMP (8 bromo-cGMP) 100 nmol l^-1, L-NAME 2 µmol l^-1 or KT5823 5 µmol l^-1, 60 min, n = 17–22 (L-NAME), 16–25 (KT5823)): no influence on the inhibitory effect of cGMP; also recorded: did not alter the inhibitory effects of exogenous cGMP

Compound: Nc1nc2c(nc(Br)n2[C@@H]2O[C@@H]3COP(=O)(O)O[C@H]3[C@H]2O)c(=O)[nH]1 [cGMP, cyclic guanosine monophosphate, 8 bromo-cGMP]
- inhibition of fluid secretion rate (earlier work) [3]: considerably inhibits fluid secretion rate

Compound: AGNSGANSGMWFGPRL-NH2 [PK1]
- luminescent response as activity compared to either CAPA peptide ([1]; 10 μM (saturating dose), n = 3): ~ 20%
- potency compared to the canonical CAPA ligands ([1]; CAPAr in CHO-K1-aequorin cells): over five orders of magnitude lower compared to the canonical CAPA ligands
- CAPAr activation (in words) ([1]; CHO-K1-aequorin cells expressing CAPAr, listed as Aedae-PK1): low agonist activity
- CAPAr activation (in words) ([1]; CHO-K1-aequorin cells expressing CAPAr, listed as pyrokinin 1-related peptide): very poor activity compared to the two CAPA peptides
- CAPAr activation (in words) ([1]; CHO-K1-aequorin cells expressing CAPAr, listed as pyrokinin-1): a significantly higher concentration of pyrokinin-1 was needed to achieve even low level CAPAr activation
- EC50 ([1]; CHO-K1 cells stably expressing aequorin, A. aegypti CAPAr transiently expressed (48 h post-transfection), coelenterazine h, kinetic luminescence for 20 sec, tested up to 10 μM, read-out: EC50 on CAPAr): > 10 µM

Compound: AWNSLHGGW-NH2 [MIP-7]
- EC50 [1, 6]: > 10 µM

Compound: GPTVGLFAFPRV-NH2 [CAPA1]
- EC50 [1, 4]: 0.00676 µM

Compound: GYRKPPFNGSIF-NH2 [SIFa]
- EC50 [1, 6]: > 10 µM

Compound: KAVRSPSLRLRF-NH2 [sNPF]
- EC50 [1, 6]: > 10 µM

Compound: NSVVLGKKQRFHSWG-NH2 [kinin]
- EC50 [1, 6]: > 10 µM

Compound: NTVNFSPRL-NH2 [PK2-1]
- EC50 [1, 6]: > 10 µM

Compound: SALDKNFMRF-NH2 [FMRFa-1]
- EC50 [1, 6]: > 10 µM

Compound: SPPFAPRL-NH2 [PK2-2]
- EC50 [1, 6]: > 10 µM
